Results taken from patent US10259796B2, “Oxaspiro[2.5]octane derivatives and analogs” (Zafgen, Inc., priority 2011, dated 2019).
Where two headings read alike, the source gives them in different places.

Columns and labels:
[1] = Cell Based Assay (inhibition range)
[2] = Mice weight loss, 7 day, 1 mg/kg/day oral gavage, diet-induced obese mice; format: in vivo; settings: Mus musculus, 168 h, read-out: Mice Wt Loss 7 day % WL 1 mpk
Source text: Lean body mass is important to normal function in subjects. Substantial loss of lean body mass is not a desirable consequence of a therapy for an overweight or obese subject. A study is undertaken to analyze weight loss with respect to lean body mass.
Mice are divided into two groups, a diet-induced obese group and a lean group (control). For the diet-induced obese group, C57BL/6NTac mice maintained prior to and during the study on a diet containing 60% fat on a kilocalorie basis are further divided into two groups, fifteen mice per group. Average body weight of these diet-induced obese mice is 40 g at the start of the study. For the lean group, fifteen C57BLI6NTac mice are maintained on a diet containing 4.3% by weight fat prior to and during the study. Average body weight of these lean mice is 33 g at the start of the study. Daily food consumption is also recorded.
Compounds of the invention are administered to one of the diet-induced obese mice groups by oral gavage as a solution in 10% DMSO, at dose of 1 mg/kg/day, 7 days. The other diet-induced obese mice group and the lean mice group are not administered anything.

recombinant human MetAP2 = target: T1, recombinant human MetAP2 (Homo sapiens, UniProt P50579); assay: MetAP2 enzyme assay (inhibition of recombinant MetAP2, Met-Gly-Met-Met substrate); format: biochemical; settings: 50 nM
T1 construct: made in house; host or cells: High Five insect cells (Bac-to-Bac baculovirus)
Description: Exemplary procedures for expression and purification of MetAP2 are shown in Griffith et al. (PNAS (1998) 95(26):15183-15188). Briefly, recombinant His-tagged human MetAP2 is expressed by using a Bac-to-Bac baculovirus expression system (GIBCO/BRL). Recombinant baculovirus stocks are generated and amplified as per the manufacturer's instructions. Protein is harvested 36 hr after baculovirus infection of two 15-cm plates of High Five cells.
The cell pellet are weighed and lysed (in 5 ml/g of wet pellet) in pre-chilled lysis buffer [buffer B+1% Nonidet P-40/1 mM phenymethylsulfonyl fluoride (PMSF)/2 μg/ml leupeptin/2 μg/ml aprotinin/1 μg/ml pepstatin]. The lysate is incubated on ice for 10 min and centrifuged at 10,000×g for 10 min. […] The Talon resin is pelleted by centrifugation at 1,200×g for 3 min and washed with 4×10 ml of buffer B. During the final wash, the resin is slurried into a Bio-Rad Econo column. The 6×His-tagged MetAP2 is eluted with 6 ml of 50 mM imidazole in buffer B, and 0.5 ml fractions are collected. The amount and purity of recombinant MetAP2 is analyzed by the absorbance at 280 nm and SDS/PAGE (10% gel). The fractions containing the highest amounts of MetAP2 are pooled and dialyzed against 3 liters of buffer B overnight before storage at 4° C.
An enzyme assay is performed in a 96-well format as described in Griffith et al. (PNAS (1998) 95(26):15183-15188). […] To begin the enzymatic reaction, Met-Gly-Met-Met is added to a final concentration of 4 mM and incubated at 37° C. The reaction is quenched after 20 min by adding EDTA to a concentration of 10 mM. Released methionine is quantitated as described in Ben-Bassat et al. (J Bacteriol (1987) 169:751-757).
IC50 values are calculated and compounds herein are determined to be active inhibitors of MetAP2, with some having nanomolar activities.

[3] = 1 hr, read-out: MetAP2 Enzyme Assay 1 hr 50 nM
[4] = 2 hr, read-out: MetAP2 Enzyme Assay 2 hr 50 nM
[5] = 4 hr, read-out: MetAP2 Enzyme Assay 4 hr 50 nM
[6] = diet-induced obese C57BL/6NTac mice, oral gavage, 1 mg/kg/day, 7 days

T1 sequence (P50579 whole entry): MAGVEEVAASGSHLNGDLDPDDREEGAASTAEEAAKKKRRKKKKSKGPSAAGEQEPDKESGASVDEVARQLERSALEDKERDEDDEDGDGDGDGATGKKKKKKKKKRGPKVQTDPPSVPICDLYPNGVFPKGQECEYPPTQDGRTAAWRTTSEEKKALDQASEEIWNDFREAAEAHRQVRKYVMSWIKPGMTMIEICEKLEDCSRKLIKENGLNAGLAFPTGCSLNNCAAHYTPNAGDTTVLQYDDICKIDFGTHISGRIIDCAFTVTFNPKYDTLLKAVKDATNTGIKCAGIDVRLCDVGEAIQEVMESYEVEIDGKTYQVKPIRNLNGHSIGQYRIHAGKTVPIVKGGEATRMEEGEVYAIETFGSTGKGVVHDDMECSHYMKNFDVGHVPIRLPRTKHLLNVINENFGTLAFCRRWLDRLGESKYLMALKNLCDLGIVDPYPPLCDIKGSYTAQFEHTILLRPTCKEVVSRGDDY

| SMILES | IC50 ([1]; in uM) [µM] | change in vivo at 1 mg/kg ([2]; po) [%] | inhibition at 0.05 µM (recombinant human MetAP2; [3]) [%] | inhibition at 0.05 µM (recombinant human MetAP2; [4]) [%] | inhibition at 0.05 µM (recombinant human MetAP2; [5]) [%] | IC50 ([1]; cells printed in nM) [µM] | change in vivo at 1 mg/kg [2, 6] [%] |
| --- | --- | --- | --- | --- | --- | --- | --- |
| C=C1CC[C@]2(CO2)[C@@H]([C@@]2(C)O[C@@H]2CC=C(C)C)[C@@H]1OC [Example 15] | 0.1 to 1 | 7.9 | 26 | 32 | 40 |  |  |
| CO[C@@H]1[C@H](NCCCCCCCCCC(=O)O)CC[C@]2(CO2)[C@H]1[C@@]1(C)O[C@@H]1CC=C(C)C [Example 7] | > 1 | 0.5 | 0 | 0 | 0 |  |  |
| CCCC/C=C/C[C@H]1O[C@]1(C)[C@H]1[C@H](OC)C(=O)CC[C@]12CO2 [Example 25] |  | 0.1 | 19 | 40 | 40 | 0.01 to 0.1 |  |
| CO[C@@H]1[C@H](OC(=O)CCCCCCCCC(=O)O[C@@H]2CC[C@]3(CO3)[C@@H]([C@@]3(C)O[C@@H]3CC=C(C)C)[C@@H]2OC)CC[C@]2(CO2)[C@H]1[C@@]1(C)O[C@@H]1CC=C(C)C [Example 27] |  | 4.4 |  |  | 48 | 0.01 to 0.1 |  |
| CO[C@@H]1C(=O)CC[C@]2(CO2)[C@H]1[C@@]1(C)O[C@@H]1CC=C(C)C [Example 51, (3R,5S)-5-methoxy-4-((2R,3R)-2-methyl-3-(3-methylbut-2-enyl)oxiran-2-yl)-1-oxaspiro[2.5]octan-6-one] |  |  | 0 | 44 | 78 |  |  |
| CO[C@@H]1[C@H](OC(=O)N[C@@H](C(=O)NCCCN(C)C)C(C)C)CC[C@]2(CO2)[C@H]1[C@@]1(C)O[C@@H]1CC=C(C)C [Example 32] |  |  |  |  | 54 | < 0.01 | 0.3 |
| CO[C@@H]1[C@H](OC(=O)N[C@@H](C(N)=O)C(C)C)CC[C@]2(CO2)[C@H]1[C@@]1(C)O[C@@H]1CC=C(C)C [Example 3] |  | 5 | 62 | 90 | 100 | < 0.01 |  |
| CCCC/C=C/C[C@H]1O[C@]1(C)[C@H]1[C@H](OC)[C@H](O)CC[C@]12CO2 [Example 24] |  |  | 0 | 0 | 0 | 0.01 to 0.1 |  |
| CO[C@@H]1C(=O)CC[C@]2(CO2)[C@H]1[C@@]1(C)O[C@@H]1CC=C(C)C [Example 8, fumagillin ketone] |  | 11.3 | 46 | 65 | 93 | < 0.01 |  |
| CO[C@@H]1[C@H](OC(=O)CCCCCCCCC(=O)O)CC[C@]2(CO2)[C@H]1[C@@]1(C)O[C@@H]1CCC(C)C [Example 9] | 0.1 to 1 |  | 12 | 35 | 50 |  | 3.3 |
| CO[C@@H]1[C@@H](F)CC[C@]2(CO2)[C@H]1[C@@]1(C)O[C@@H]1CC=C(C)C [Example 23] |  |  | 23 | 28 | 27 | 0.01 to 0.1 | -0.33 |
| CO[C@@H]1[C@H](OC(=O)NC2CN3CCC2CC3)CC[C@]2(CO2)[C@H]1[C@@]1(C)O[C@@H]1CC=C(C)C (some centres unmarked) [Example 30] |  |  |  |  | 30 | < 0.01 | -0.9 |
| CO[C@@H]1C(=CC=C(C)C)CC[C@]2(CO2)[C@H]1[C@@]1(C)O[C@@H]1CC=C(C)C [Example 21] | > 1 |  | 0 | 0 | 0 |  |  |
| CO[C@@H]1[C@H](OC(=O)CCCCCCCCC(=O)O)CC[C@]2(CO2)[C@H]1[C@@]1(C)O[C@@H]1CC=C(C)C [Example 5] |  | 9.5 | 15 | 30 | 50 | < 0.01 |  |
| CCOC(=O)CCCCC/C=C/C[C@H]1OC1(C)[C@H]1[C@H](OC)C(=O)CC[C@]12CO2 (some centres unmarked) [Example 59] |  |  |  |  | 0 | 0.01 to 0.1 |  |
| CCCCCCCCCC=C1CC[C@]2(CO2)[C@@H]([C@@]2(C)O[C@@H]2CC=C(C)C)[C@@H]1OC [Example 20] | > 1 | 0.4 | 0 | 0 | 0 |  |  |
| CCCCCCCC/C=C\CCCCCCCC(=O)O[C@@H]1CC[C@]2(CO2)[C@@H]([C@@]2(C)O[C@@H]2CC=C(C)C)[C@@H]1OC [Example 16] | > 1 | 5.4 | 0 | 0 | 0 |  |  |
| C=C1CC[C@]2(CO2)[C@@H]([C@@]2(C)O[C@@H]2C/C=C/CCCC)[C@@H]1OC [Example 22] | > 1 |  | 0 | 0 | 0 |  |  |
| COC(=O)CCCCCCCCCO[C@H]1CC[C@]2(CO2)[C@@H]([C@@]2(C)O[C@@H]2CC=C(C)C)[C@@H]1OC [Example 6] | > 1 |  | 0 | 0 | 0 |  | 1.7 |
| CO[C@@H]1C(C)CC[C@]2(CO2)[C@H]1[C@@]1(C)O[C@@H]1CCC(C)C (some centres unmarked) [Example 26] |  |  | 0 | 0 | 0 |  |  |
| CCCCCCCCCC[S+]([O-])[C@@H]1CC[C@]2(CO2)[C@@H]([C@@]2(C)O[C@@H]2CC=C(C)C)[C@@H]1OC (some centres unmarked) [Example 31] |  |  |  |  | 0 |  |  |
| CO[C@@H]1C(=O)CC[C@]2(CO2)[C@H]1C1(C)O[C@@H]1CC(=O)NCc1ccccc1 (some centres unmarked) [Example 58] |  |  |  |  | 0 |  |  |
| CO[C@@H]1[C@H](OC(=O)/C=C/C=C/C=C/C=C/C(=O)O)CC[C@]2(CO2)[C@H]1[C@@]1(C)O[C@@H]1CC=C(C)C [Example 36] |  |  |  |  | 64 | < 0.01 |  |
| CO[C@@H]1C(=O)C(C)C[C@]2(CO2)C1[C@@]1(C)O[C@@H]1CC=C(C)C (stereo partly drawn) [Example 53, (3R,5S)-5-methoxy-7-methyl-4-((2R,3R)-2-methyl-3-(3-methylbut-2-enyl)oxiran-2-yl)-1-oxaspiro[2.5]octan-6-one] |  |  | 0 | 0 | 28 |  |  |
| CO[C@@H]1C(=O)CC[C@]2(CO2)[C@H]1C1(C)O[C@@H]1CC(=O)O (some centres unmarked) [Example 55] |  |  |  |  | 0 |  |  |
| CO[C@@H]1C(=O)C=C[C@]2(CO2)[C@H]1[C@@]1(C)O[C@@H]1CC=C(C)C [Example 57, (3R,S)-7-methoxy-8-((2R,3R)-2-methyl-3-(3-methylbut-2-enyl)oxiran-2-yl)-1-oxaspiro[2.5]oct-4-en-6-one] |  |  |  |  | 37 |  |  |
| CCOC(=O)C=C1CC[C@]2(CO2)[C@@H]([C@@]2(C)O[C@@H]2CC=C(C)C)[C@@H]1OC [Example 37] |  |  |  |  | 96 | < 0.01 |  |
| CO[C@@H]1C(=O)CC[C@@](C)(O)[C@H]1[C@@]1(C)O[C@@H]1CCC(C)C [Example 54, (2S,4R)-4-hydroxy-3-((2R,3R)-3-isopentyl-2-methyloxiran-2-yl)-2-methoxy-4-methylcyclohexanone] |  |  | 0 | 0 | 0 |  |  |
| CO[C@@H]1C(=O)CC[C@]2(CO2)[C@H]1C1(C)O[C@@H]1CCC(C)C (stereo in doubt) [Example 52, (3R,5 S)-4-((2R,3R)-3-isopentyl-2-methyloxiran-2-yl)-5-methoxy-1-oxaspiro[2.5]octan-6-one] |  |  | 0 | 0 | 17 |  |  |
